Test results as given in US11528908B2, “Acaricide and application thereof” (priority 2018, dated 2022).

Legend:
[1] = test system: adult citrus red mites (Panonychus citri Mcgregor); assay: Glass slide method, mortality of adult mites (Table 7); format: in vivo
Procedure: By using the glass slide method, the effects of the 1500-fold diluted solution and the 3000-fold diluted solution of the acaricide prepared in embodiment 3, the 1500-fold diluted solution of the ethoxy-modified trisiloxane, and the 1500-fold diluted solution of the solid sodium dioctyl sulfosuccinate prepared in embodiment 1 on the adult citrus red mites (Panonychus citri Mcgregor) were tested. Each treatment group had 50 citrus red mites, and the measurement was repeated 4 times, with water as a control.

mites = assay: Acaricidal effect of ethoxy-modified trisiloxane alone (statement in summary); conditions: content 0.667 g/L to 1.0 g/L

Row | Molecule | Mortality after 10 minutes ([1]; 1500× dilution, 10 minutes after spraying) [dD %] | Mortality after 72 hours ([1]; 1500× dilution, 72 hours after spraying) [dD %] | damage to plants (mites) | acaricidal rate for 72 hours (mites; high concentration) | Mortality after 10 minutes ([1]; in vivo) [cC %] | Mortality after 72 hours ([1]; in vivo) [cC %]
1 | ethoxy-modified trisiloxane | 15.42 | 28.84 | serious pesticide damage | about 30% | – | –
2 | CCCCCCCCOC(=O)CC(C(=O)OCCCCCCCC)S(=O)(=O)O.[Na] (stereo not drawn) [sodium dioctyl sulfosuccinate] | – | – | – | – | 20.35 | 62.45
